Converted amounts (≈) assume the structure as drawn. “And” between values parts separate entries of the source, which are not always exact repeats. Equal values may be shown once. The source made the active and inactive calls. The calls are words filed in the database; no cut-off is given here.
How the values were obtained:
A10 [1] = test: Disruption of actin cytoskeleton in rat A10 cells assessed as generation of binucleated cells at 7.3 nM after 24 hrs by TRITC-phalloidin assay; type: functional, cell-based
Candida albicans [2] = test: Antifungal activity against wild-type Candida albicans; type: functional
Candida albicans [3] = test: Antifungal activity against amphotericin B-resistant Candida albicans; type: functional
HCT-116 = test: Cytotoxicity against human HCT116 cells after 72 hrs by MTS reduction assay; type: functional, cell-based; conditions: HCT-116, 72 h
A10 [4] = test: Disruption of actin cytoskeleton in rat A10 cells assessed as generation of binucleated cells at 70 nM after 24 hrs by TRITC-phalloidin assay; type: functional, cell-based

Q: Which Activity (A10 [1]) does the source give for `CO[C@H]1C[C@H](CC[C@H](C)[C@H](O)[C@H](C)[C@H]2OC(=O)/C=C/C(C)=C/C[C@H](O)C[C@@H]3C=CC[C@@H](C[C@H](OC)[C@@H](C)[C@@H](O)C[C@@H](O)[C@H](C)[C@@H]([C@@H](C)[C@@H](O)[C@@H](C)CC[C@H]4C[C@H](OC)C[C@H](C)O4)OC(=O)/C=C/C(C)=C/C[C@H](O)C[C@@H]4C=CC[C@@H](C[C@H](OC)[C@@H](C)[C@@H](O)C[C@@H](O)[C@@H]2C)O4)O3)O[C@@H](C)C1` here?
A: Active

Q: How did the MIC (Candida albicans [2]) turn out when `C[C@@H]1[C@H](O)[C@@H](C)/C=C/C=C/C=C/C=C/C=C/C=C/C=C/[C@H](O[C@@H]2O[C@H](C)[C@@H](O)[C@H](N)[C@@H]2O)C[C@@H]2O[C@](O)(C[C@@H](O)C[C@@H](O)[C@H](O)CC[C@@H](O)C[C@@H](O)CC(=O)O[C@H]1C)C[C@H](O)[C@H]2C(=O)O` [AMPHOTERICIN B] was run?
A: 1.56 µg/mL (≈ 1.69 µM)

Q: How did the MIC (Candida albicans [3]) turn out when `CO[C@H]1C[C@H](CC[C@H](C)[C@H](O)[C@H](C)[C@H]2OC(=O)/C=C/C(C)=C/C[C@H](O)C[C@@H]3C=CC[C@@H](C[C@H](OC)[C@@H](C)[C@@H](O)C[C@@H](O)[C@H](C)[C@@H]([C@@H](C)[C@@H](O)[C@@H](C)CC[C@H]4C[C@H](OC)C[C@H](C)O4)OC(=O)/C(C)=C/C[C@H](O)C[C@@H]4C=CC[C@@H](C[C@H](OC)[C@@H](C)[C@@H](O)C[C@@H](O)[C@@H]2C)O4)O3)O[C@@H](C)C1` [HURGHADOLIDE A] was run?
A: 31.3 µg/mL (≈ 22.9 µM)

Q: And the IC50 (HCT-116)?
A: 365 nM and 0.5 µg/mL

Q: And the MIC (Candida albicans [2])?
A: 31.3 µg/mL (≈ 22.9 µM)

Q: How did the MIC (Candida albicans [3]) turn out when `CO[C@@H]1C[C@H](C)O[C@@H](C(O)C[C@H](C)[C@H](O)[C@H](C)[C@H]2OC(=O)/C=C/C(C)=C/C[C@H](O)C[C@@H]3C=CC[C@@H](C[C@H](OC)[C@@H](C)[C@@H](O)C[C@@H](O)[C@H](C)[C@@H]([C@@H](C)[C@@H](O)[C@@H](C)CC[C@H]4C[C@H](OC)C[C@H](C)O4)OC(=O)/C=C/C(C)=C/C[C@H](O)C[C@@H]4C=CC[C@@H](C[C@H](OC)[C@@H](C)[C@@H](O)C[C@@H](O)[C@@H]2C)O4)O3)C1` (some centres undefined) [Swinholide I] was run?
A: 500 µg/mL (≈ 356 µM)

Q: And the IC50 (HCT-116)?
A: 5.6 nM and 0.008 µg/mL

Q: What about the MIC (Candida albicans [2]) of the same molecule?
A: 62.2 µg/mL (≈ 44.2 µM)

Q: And the Activity (A10 [4])?
A: Active

Source: ChEMBL document CHEMBL1157239, “Hurghadolide A and swinholide I, potent actin-microfilament disrupters from the Red Sea sponge Theonella swinhoei” (J Nat Prod, 2006)
